Common to all, as to format: in vivo, Arabidopsis thaliana
For assay [1], the system named is Arabidopsis wild type and los5-1 plants. In words: Transpirational water loss of detached aerial parts after ABA spray. The conditions noted are these: sprayed with 100 μM ABA 3 hr before detaching aerial parts. On the procedure: To determine whether los5 mutant plants are deficient in ABA or are insensitive to ABA, wild type and los5-1 plants at the rosette stage were sprayed with 100 μM ABA 3 hr before detaching the aerial parts for water loss measurement.
For water loss measurement, plants at the rosette stage were detached from soil surface and weighed immediately in a plastic weighing boat. The boat with the plants was then placed on laboratory bench (relative humidity ˜30%) and weighed at designated time intervals. There were four replicates for each line. Percent loss of fresh weight was calculated based on the initial weight of the plants.

A further assay has as its system RD29A-LUC. In words: RD29A-LUC luminescence expression in seedlings, ABA given together with salt or cold stress. As for the experimental part:
Arabidopsis thaliana (C24 ecotype) expressing the RD29A-LUC transgene (referred to as the wild type) were obtained by Agrobacterium-mediated transformation (Ishitani et al., 1997). Seeds of wild type RD29A-LUC were mutagenized by ethyl methanesulfonate (Ishitani et al., 1997). M2 were planted on 0.6% agar plates containing full strength Murashige and Skoog salt base (MS salt base; JRH Biosceicnes, Lenex, Kans.) and were germinated and grown at 22±2° C. under continuous white light. One-week-old seedlings were screened for mutants with altered RD29A-LUC (i.e. luminescence) expression in response to low temperature, ABA, or osmotic stress using a thermoelectrically cooled CCD camera. For luminescence imaging, plants were sprayed with 1 mM luciferin in 0.01% Triton X-100 and then kept in the dark for 5 min before imaging. All images were acquired with a 5 min exposure time. The luminescence intensity of each seedling was quantified with the WinView software.
For ABA treatment, 100 μM (±)-cis, trans-abscisic acid in H2O was sprayed uniformly on leaves of seedlings and the plants were incubated at room temperature under cool-white light for 4 hr (for luminescence imaging) or 3 hr (for RNA analysis). For NaCl or PEG treatment, seedlings on MS plates were transferred to filter paper saturated with MS solution supplemented with 300 mM NaCl or 30% of polyethylene glycol (molecular weight 6,000) and incubated for 5 hr. Unless otherwise stated, cold treatment for image analysis and RNA analysis were done by incubating seedlings growing in plates at 0° C. in the dark for 48 hr (for imaging) or 12 hr (for RNA analysis). Because longer treatment at −5 or −10° C. will result in freezing of the agar media, these freezing temperature treatments only lasted for 3 hr. After the treatment, the plates were placed at room temperature for 2 hr to thaw before luminescence images acquisition. For ABA plus NaCl treatment, seedlings were transferred onto a filter paper saturated with 300 mM NaCl in MS solution and sprayed immediately with 100 μM ABA. […]

The test system of another assay is LOS5/ABA3 gene. In words: RNA blot analysis of LOS5/ABA3 transcript level. The following applies: wild type seedlings, 100 μM ABA for 4 hr. On the procedure: […] For NaCl or PEG treatment, seedlings on MS plates were transferred to filter paper saturated with MS solution supplemented with 300 mM NaCl or 30% of polyethylene glycol (molecular weight 6,000) and incubated for 5 hr. Unless otherwise stated, cold treatment for image analysis and RNA analysis were done by incubating seedlings growing in plates at 0° C. in the dark for 48 hr (for imaging) or 12 hr (for RNA analysis). Because longer treatment at −5 or −10° C. will result in freezing of the agar media, these freezing temperature treatments only lasted for 3 hr. After the treatment, the plates were placed at room temperature for 2 hr to thaw before luminescence images acquisition. For ABA plus NaCl treatment, seedlings were transferred onto a filter paper saturated with 300 mM NaCl in MS solution and sprayed immediately with 100 μM ABA. The plants were then incubated under cool-white light for 4 hr before luciferase imaging. For low temperature plus ABA treatment, seedlings on agar plates were briefly incubated at 0±1° C. for 10 min and then sprayed with 100 μM ABA and incubated in the dark at 0±1° C. for 48 hr before image analysis.
Ten-day-old seedlings on MS agar plates were treated were treated with cold, ABA, NaCl, or PEG as described in the above section. […] Total RNA from control or treated plants was extracted and analyzed as described (Ishitani et al., 1998). […]

Structures are written as SMILES.

Turning to `CC1=CC(=O)CC(C)(C)C1(O)/C=C/C(C)=C\C(=O)O` (racemic) [ABA, (±)-cis, trans-abscisic acid], in assay [1] (los5-1 plants at rosette stage), the “rate of water loss” value is on record as “reduced substantially”. Also, in assay [1] (wild type plants at rosette stage), the transpirational water loss entry is given as “did not significantly affect”. In addition, the RD29A-LUC expression entry in the assay with RD29A-LUC (los5 and los6/aba1 seedlings, 100 μM ABA administered simultaneously with 300 mM NaCl, 4 hr) is given as “restored to the wild type level or higher”; with RD29A-LUC (los5 mutant seedlings, 100 μM ABA together with cold, 0° C. for 48 hr) it was “failed to restore”. In the assay on RD29A-LUC (los6/aba1 seedlings, 100 μM ABA together with cold, 0° C. for 48 hr), the RD29A-LUC luminescence expression result is on record as “close to the wild type level”. In addition, the “transcript level of LOS5” value with LOS5/ABA3 gene is “increases significantly”.

The record behind these values is patent publication US7038111B2, “Method for increasing stress tolerance in plants” (The Arizona Board of Regents, priority 2001, dated 2006).
